Experiments:
[1] = target: T1, TANK binding kinase (TBK1) (Homo sapiens, UniProt Q9UHD2); experiment: TBK1 enzyme assay (384-well flashplate kinase assay); type: biochemical; conditions: 10 μM ATP, 0.6 nM TBK1
T1 sequence (Q9UHD2 1-729): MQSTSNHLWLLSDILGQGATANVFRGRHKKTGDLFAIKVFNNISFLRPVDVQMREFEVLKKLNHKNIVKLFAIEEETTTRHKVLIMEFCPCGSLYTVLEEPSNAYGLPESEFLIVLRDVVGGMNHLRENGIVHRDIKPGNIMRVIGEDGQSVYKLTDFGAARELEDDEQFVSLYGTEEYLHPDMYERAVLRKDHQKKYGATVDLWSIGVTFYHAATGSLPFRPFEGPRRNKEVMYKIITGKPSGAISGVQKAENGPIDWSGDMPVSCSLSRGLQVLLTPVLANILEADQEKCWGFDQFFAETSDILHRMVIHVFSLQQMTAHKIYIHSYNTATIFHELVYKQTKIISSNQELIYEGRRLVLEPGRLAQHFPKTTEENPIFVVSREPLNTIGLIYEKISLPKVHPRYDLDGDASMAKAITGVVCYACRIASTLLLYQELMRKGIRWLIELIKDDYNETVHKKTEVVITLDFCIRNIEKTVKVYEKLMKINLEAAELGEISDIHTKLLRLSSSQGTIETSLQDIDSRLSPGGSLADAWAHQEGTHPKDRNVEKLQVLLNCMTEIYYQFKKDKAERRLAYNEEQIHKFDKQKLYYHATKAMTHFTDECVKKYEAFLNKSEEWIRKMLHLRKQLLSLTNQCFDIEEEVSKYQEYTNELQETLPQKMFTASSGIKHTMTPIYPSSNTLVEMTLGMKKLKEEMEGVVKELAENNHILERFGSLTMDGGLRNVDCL
Method: Test for the Inhibition of TBK1
(§1) The kinase assay is performed as 384-well flashplate assay (for example for Topcount measurement).
0.6 nM TANK binding kinase (TBK1), 800 nM biotinylated MELK-derived peptide (biotin-Ah-Ah-[…]) and 10 μM ATP (spiked with 0.25 μCi of ^33P-ATP/well) are incubated at 30° C. for 120 min in a total volume of 50 μl (10 mM MOPS, 10 mM Mg acetate, 0.1 mM EGTA, 1 mM DTT, 0.02% of Brij35, 0.1% of BSA, pH 7.5) with or without test compound. The reaction is stopped with 25 μl of 200 mM EDTA. After 30 min at room temperature, the liquid is removed, and each well is washed three times with 100 μl of 0.9% sodium chloride solution. Non-specific reaction is measured in the presence of 100 nM staurosporine. The radioactivity is measured in a Topcount (PerkinElmer). The results (for example IC50 values) are calculated using program tools provided by the IT Department (for example Assay-Explorer, Symyx). Cell Test

[2] = target: T2, IKKε (Homo sapiens, UniProt Q14164); experiment: IKKε kinase assay (384-well flashplate assay); type: biochemical; conditions: 10 μM ATP, 1 nM IKKε; read-out: IKKε enzyme assay IC50
T2 sequence (Q14164 1-716): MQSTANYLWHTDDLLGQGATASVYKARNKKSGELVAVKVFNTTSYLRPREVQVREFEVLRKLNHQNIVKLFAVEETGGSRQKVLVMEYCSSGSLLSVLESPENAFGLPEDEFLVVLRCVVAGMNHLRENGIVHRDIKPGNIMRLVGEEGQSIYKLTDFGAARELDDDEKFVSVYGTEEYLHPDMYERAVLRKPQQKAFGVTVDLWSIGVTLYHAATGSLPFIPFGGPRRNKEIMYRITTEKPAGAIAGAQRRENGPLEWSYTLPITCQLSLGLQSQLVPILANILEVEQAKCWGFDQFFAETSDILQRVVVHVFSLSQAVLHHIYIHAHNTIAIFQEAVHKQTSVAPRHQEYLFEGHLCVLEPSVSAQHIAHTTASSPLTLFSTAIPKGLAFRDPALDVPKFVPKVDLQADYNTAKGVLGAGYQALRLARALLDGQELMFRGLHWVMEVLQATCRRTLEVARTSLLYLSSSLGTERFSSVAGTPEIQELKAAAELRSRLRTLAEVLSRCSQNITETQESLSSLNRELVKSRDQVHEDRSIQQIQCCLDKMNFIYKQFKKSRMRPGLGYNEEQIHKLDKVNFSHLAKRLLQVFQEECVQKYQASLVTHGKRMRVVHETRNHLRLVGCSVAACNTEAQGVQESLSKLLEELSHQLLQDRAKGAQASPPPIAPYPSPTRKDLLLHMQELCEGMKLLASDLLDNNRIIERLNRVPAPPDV
Method: Test for the Inhibition of IKKε
IKKε—Kinase Assay (IKKepsilon)
as §1
1 nM IKKε, 800 nM biotinylated IκKα(19-42) peptide (Biotin-C6-C6-[…]) and 10 μM ATP (spiked with 0.3 μCi of ^33P-ATP/well) are incubated at 30° C. for 2 hours in a total volume of 50 μl (10 mM MOPS, 10 mM Mg acetate, 0.1 mM EGTA, 1 mM dithiothreitol, 0.02% of Brij35, 0.1% of BSA, 0.1% of BioStab, pH 7.5) with or without test compound. The reaction is stopped using 25 μl of 200 mM EDTA. After 30 min at room temperature, the liquid is removed, and each well is washed three times with 100 μl of 0.9% sodium chloride solution. Non-specific reaction is determined in the presence of 3 μM MSC2119074 (BX-795). The radioactivity is measured using a Topcount (Perkin Elmer). The results (for example IC50 values) are calculated using program tools provided by the IT Department (for example AssayExplorer, Symyx).

[3] = tested on: TBK1 + IKKε; experiment: TBK1 + IKKε cell assay: dose response inhibition of phospho-IRF3 @ Ser 386 in MDA-MB-468 cells after poly(I:C) stimulation; type: cell-based; conditions: Homo sapiens, MDA-MB-468, MDA-MB-468 cells, reference inhibitor, read-out: IC50 of reference inhibitor in phospho-IRF3 cell assay
Excerpt: Dose response inhibition of phospho-IRF3 @ Ser 386 cell/MDAMB468/INH/PHOS/IMAG/pIRF3
Although TBK1 and IKKε are mainly known as key substances in the innate immune response, recent findings have indicated a role for TBK1 and IKKε in Ras-induced oncogenic transformation. TBK1 was identified as RaIB effector in the Ras-like (RaI)-guanine nucleotide exchange factor (GEF) pathway that is required for Ras-induced transformation. TBK1 directly activates IRF3 which, on phosphorylation, homodimerises and translocates to the nucleus, where it activates processes associated with inflammation, immune regulation, cell survival and proliferation.
This assay has been developed in order to assess the efficacy/potency of TBK1/IKKε inhibitor compounds based on the immunocytochemical detection of nucleus-localised phospho-IRF3, a target directly downstream of TBK1. Treatment with polyinosine-polycytidylic acid (poly(I:C), a synthetic analogue of double-stranded RNA (dsRNA), a molecular pattern associated with viral infection and recognised by Toll-like receptor 3 (TLR3) is used to induce TBK1/IKKε activity and IRF3 phosphorylation at Ser386.
Day 1: MDA-MB-468 cells are detached using HyQ-Tase, counted and sown into a 384-well plate with TC surface and clear bottom in a density of 10,000 cells per well in a total volume of 35 μl of complete medium. Alternatively, the cells are sown directly from frozen glass vials.
Day 2: The cells are pre-treated with inhibitor compounds for 1 h prior to poly(I:C) stimulation. After incubation for 2 h with poly(I:C), the cells are fixed in (para)formaldehyde (PFA) and permeabilised using methanol (MeOH). The cells are then blocked and incubated with an anti-pIRF3 antibody at 4° C. overnight.
Day 3: The primary antibody is washed off, an AlexaFluor488-conjugated secondary antibody is added, the cells are contrast-stained with propidium iodide, followed by image acquisition on an IMX ultra-high content reader.
Plating medium=culture medium: • RPMI 1640, Invitrogen #31870 • 10% of FCS, Invitrogen #10270-106 • 2 mM Glutamax, Invitrogen #35050-038 • 1 mM sodium pyruvate, Invitrogen #11360 • 1% of Pen/Strep • 37° C., 5% of CO2
Plates: 384-well bottom cell culture plates with black/clear bottom, Falcon #35 3962 or Greiner #781090
Subcultivation: HyQ-Tase, Thermo Scientific (HyClone) # SV30030.01
Poly(I:C) (LMW), Invitrogen # tlrl-picw (prepare 20 mg/ml stock solution in sterile PBS, denature 30 min 55° C. in a water bath, slowly cool to RT, store at −20° C. in aliquots)
a 10-point dose-response curve with MSC2119074A-4=BX-795 is included in each experiment
Formaldehyde (methanol-free, 16%, ultrapure EM grade), Polysciences #18814 (storage RT), final conc.: 4%
Goat serum, PAA # B15-035 (storage 4° C., long term −20° C.), final conc.: 10%
BSA (IgG- and protease-free, 30%), US-Biological # A1317 (storage 4° C., long term −20° C.), final conc.: 2%
Tween 20 detergent, Calbiochem #655204 (storage RT), (prepare 10% stock solution in water; final conc.: 0.1%)
Anti-pIRF-3 rabbit mAb, Epitomics #2526-B (storage −20° C.), final conc.: 1:2000 in PBS/2% of BSA
Alexa Fluor goat-anti-rabbit-488, Invitrogen # A11034 or # A11008 (storage 4° C., dark), final conc.: 1:2000 in PBS/2% of BSA/0.1% of Tween
Propidium iodide (PI), Fluka #81845, 1 mg/ml in H2O (storage 4° C., dark), final conc.: 0.2 μg/ml
(1) Sow 10,000 cells/well/35μof complete RPMI +10% FCS into 384-well bottom cell culture plates with black / clear bottom,
(2) Incubate for 2 h at room temperature on the bench, followed by further incubation for 22 h at 37° C., 5% of CO2 and 90% RH. […]

Compound | IC50 [1] | IC50 [2] | IC50 [3]
Cc1[nH]c2ncc(-c3cnn(C)c3)cc2c1-c1ccc(OC2CCOCC2)c(C#N)c1 [Compound A11, 5-[2-methyl-5-(1-methylpyrazol-4-yl)-1H-pyrrolo[2,3-b]pyridin-3-yl]-2-tetrahydropyran-4-yloxybenzonitrile] | < 0.3 µM | 0.3 to 3 µM | –
N#Cc1cc(-c2c[nH]c3ncc(Br)cc23)ccc1OCC1CC1 [Compound A14, 5-(5-bromo-1H-pyrrolo[2,3-b]pyridin-3-yl)-2-(cyclopropylmethoxy)benzonitrile] | 3 to 50 µM | 3 to 50 µM | –
N#Cc1cc(-c2c[nH]c3ncc(-c4cnn(C5CCN(S(=O)(=O)c6ccccc6)CC5)c4)cc23)cnc1OC1CCOCC1 [Compound A19, 5-[5-[1-[1-(benzenesulfonyl)-4-piperidyl]pyrazol-4-yl]-1H-pyrrolo[2,3-b]pyridin-3-yl]-2-tetrahydropyran-4-yloxypyridine-3-carbonitrile] | 0.3 to 3 µM | 0.3 to 3 µM | –
O=C(NCCCNc1nc(Nc2cccc(NC(=O)N3CCCC3)c2)ncc1I)c1cccs1 [BX-795, reference compound] | – | – | 0.2 to 0.8 µM

Further lines, results first:

IC50 [1] | IC50 [2] | IC50 [3] | Compound
3 to 50 µM | 3 to 50 µM | – | COc1ccc2c(-c3ccc(OC4CCOCC4)c(C#N)c3)c[nH]c2n1 [Compound A3, 5-(6-methoxy-1H-pyrrolo[2,3-b]pyridin-3-yl)-2-tetrahydropyran-4-yloxybenzonitrile]
0.3 to 3 µM | 0.3 to 3 µM | – | COc1ccnc2[nH]cc(-c3ccc(OC4CCOCC4)c(C#N)c3)c12 [Compound A2, 5-(4-methoxy-1H-pyrrolo[2,3-b]pyridin-3-yl)-2-tetrahydropyran-4-yloxybenzonitrile]
3 to 50 µM | 3 to 50 µM | – | N#Cc1cc(-c2c[nH]c3ncc(Br)cc23)ccc1OC1CCOCC1 [Compound A5, 5-(5-bromo-1H-pyrrolo[2,3-b]pyridin-3-yl)-2-tetrahydropyran-4-yl-oxy-benzonitrile]
< 0.3 µM | 0.3 to 3 µM | – | N#Cc1ccc(-c2cnc3[nH]cc(-c4ccc(OC5CCOCC5)c(C#N)c4)c3c2)cc1 [Compound A6, 5-[5-(4-cyanophenyl)-1H-pyrrolo[2,3-b]pyridin-3-yl]-2-tetrahydropyran-4-yloxybenzonitrile]

— US9102675B2, “3-Cyanoaryl-1H-pyrrolo[2,3-B] pyridine derivatives” (MERCK PATENT GMBH, priority 2011, dated 2015)
